In US20240261296A1, “THERAPEUTIC MODALITIES FOR INHIBITING PANCREATIC BETA CELL IMPAIRMENT AND TREATING DIABETES” (Hadasit Medical Research Serices & Development Ltd., priority 2021, published 2024):

Assays:
[1] = system: human islet cells; experiment: Caspase-Glo 3/7 assay in palmitic acid-treated human islets; type: cell-based; parameters: rescuing human islet cells from apoptosis, compared with L-798106 / inhibiting or reversing palmitate-induced apoptosis in pancreatic islets of both human donors / inhibition of palmitate-induced apoptosis in human islets, donor 1: dose or concentration left out as unconfirmed; details: palmitic acid, 48 h; for rescuing human islet cells from apoptosis, compared with L-798106: two human donors
Description: (§1) Islet and cell culture: The pancreatic β-cell line MIN6, which is a clonal murine insulin-secreting line, was cultured in DMEM (Biological Industries, Beit Haemek, Israel) supplemented with 11 mM Glucose, 2 mM glutamine, 15% heat-inactivated fetal calf serum (FCS), 100 U/ml penicillin, 100 µg/ml streptomycin and 61 μM β-mercaptoethanol. Human islets were obtained from the European Consortium for Islet Transplantation (ECIT) at the San Raffaele Hospital and from the Niguarda Hospital, (Milan, Italy) and cultured in CMRL-1066 media (Biological Industries, Beit HaEmek, Israel) supplemented with 10% FCS, 5.5 mM glucose, 2 mM L-Glutamine, 100 U/ml penicillin, 100 μg/ml streptomycin and 150 μg/ml gentamycin. Palmitate was added to 1% FCS and 0.5% defatted BSA (Roche, Germany).
Next, the ability of the compounds to rescue human islet cells from palmitate-induced apoptosis was determined. To this end, the Caspase-Glo 3/7 assay reagent (Promega) was used for caspase 3/7 detection in palmitic acid-treated cells. The reagent provides a proluminescent caspase-3/7 substrate, which contains the tetrapeptide sequence DEVD, in combination with luciferase and a cell-lysing agent. The addition of the reagent directly to the wells results in cell lysis, followed by caspase cleavage of the DEVD substrate, and the generation of luminescence.
Accordingly, human islets from two donors were exposed to the various compounds or to L-798106 for 48 h in the presence of palmitic acid, and the bioluminescence was measured as compared to control cells. FIGS. 3A-3B show the results of the treatment with […] of the compounds in two human donors (FIG. 3A—donor 1, FIG. 3B—donor 2). PA: Palmitate; L: L-798106; RLU: Relative Light Units. The results are average of triplicates or quadruplicates ±SEM (except in islets from L-798106 treated donor 2, representing duplicates).
Next, various concentrations of the compounds were tested in human pancreatic islet cells. Cells obtained from the first healthy donor (donor 1) were incubated in the presence or absence of PA with C13, C5 or L-798106 (L) at concentrations of 5, 2.5 and 0.5 μM. Caspase 3/7 enzymatic activity was measured as described above. The enzymatic activity is presented in FIG. 5A for 5 μM, FIG. 5B for 2.5 μM and FIG. 5C for 0.5 μM as relative light units (RLU/μg protein) and the graphs represent the average of n=3-4.

[2] = system: pancreatic β-cell; details: chow and high-fat diet islets; cited from earlier work
[3] = system: db/db mice; experiment: Insulin Tolerance Test (ITT); type: in vivo; details: 8 weeks oral treatment; 0.75 U/kg insulin; all time points; vs vehicle
Description: An Insulin Tolerance Test (ITT) was conducted to determine the effect of the test compounds on insulin resistance, following oral administration of Vehicle or the tested compounds as described in Example 9. To this end, the different treated groups were further subjected to a subsequent 5-hour fast and then injected with 0.75 U/kg insulin. Blood glucose was measured at the time of insulin injection (baseline level) and at the indicated time intervals thereafter. Blood glucose levels and AUC of the wild-type mice are presented in FIGS. 19A-19B respectively, and blood glucose levels and AUC of the db/db mice are presented in FIGS. 19C-19D respectively. The different test groups as presented in FIGS. 19A-19D are represented as described in Example 9.
To determine the effect of the C17 and C20 compounds on insulin resistance, an ITT was conducted essentially as described in Example 11. Blood glucose levels and AUC of the wild-type mice are presented in FIGS. 27A-27B respectively (n=5-15), and blood glucose levels and AUC of the db/db mice are presented in FIGS. 27C-27D respectively (n=5-10). The different test groups as presented in FIGS. 27A-27D are represented as described in Example 14.

[4] = system: db/db mice; experiment: random blood glucose levels in db/db and control mice; type: in vivo; details: for average random blood glucose levels in db/db mice: 8 weeks gavage, compared to the vehicle; for random blood glucose levels at 8 weeks: compared with L-798106 treated mice
Description: The effects of the compounds were tested in an in vivo model of diabetes. To this end, C57BLKS/J mice with the leptin receptor mutation (BKS-db; BKS.Cg-Dock7m+/+Leprdb/J), known as an animal model characteristic of human T2DM, were used, when both male and female homozygotes to Leprb mutation (db/db) develop spontaneous T2DM with phenotypes that include: (I) severe obesity, (II) progressive and sustained hyperglycemia, when the course of the disease is markedly influenced by genetic background BLKS (in contrast to regular C57BL/6J background mice with the same mutation (B6-db), (III) glucose intolerance resulting in elevated serum cholesterol, glucose, and triglycerides, and (VI) elevations of plasma blood sugar resulting in severe depletion of the insulin-producing β-cells of the pancreatic islets, and eventually death.
Two sets of experiments with two colonies of homozygote mice were performed with the C5 and C13 compounds (n=5 for each experiment), compared to L-798106. The compounds were administered to 7-8-week-old mice by oral gavage (2.5 mg/kg/day) for eight weeks. Control group (n=10-15) received vehicle (DMSO in PBS). Blood glucose was randomly tested throughout the experiment.
To test the effect of the compounds C15, C17 and C20 on random blood glucose levels, control and db/db mice underwent essentially the same treatment course and measurements as described in Example 9.

[5] = system: db/db mice; experiment: intraperitoneal glucose tolerance test (IPGTT); type: in vivo; details: 8 weeks oral 2.5 mg/kg/day; glucose 1 g/kg; all time points; vs vehicle
Description: Lepr^db/db homozygotes (db/db) and heterozygote Lepr^db/+ (wild type) mice were treated daily with 2.5 mg/kg/day oral administration of the Vehicle, the commercial EP3 antagonist L-798106 and the compounds C5 and C13 for 8 weeks, as described in Example 9. A glucose tolerance test (Intraperitoneal glucose tolerance test, IPGTT) was performed following four weeks and eight weeks of the onset of treatment, as follows. Glucose (1 g/kg) was injected following 8 hours of fasting, and blood glucose was measured at baseline and at 30-, 60-, 90- and 120-minutes post glucose administration.
Heterozygote (wild type) and diabetic db/db mice were treated daily with the Vehicle, L-798106 and the compounds C17 and C20 for 8 weeks, essentially as described in Example 9. A glucose tolerance test (IPGTT) was performed essentially as described in Example 10.

[6] = blood insulin concentrations by serum C-peptide ELISA; type: in vivo; details: 8 weeks oral treatment; vs vehicle-treated diabetic mice
Description: At the end of the 8 week-long period of treatment as described in Example 9, mice were sacrificed and blood samples were collected, and analyzed for different parameters as detailed below.
Blood insulin concentrations.
Blood insulin concentrations. Following 8 weeks of treatment, blood samples were collected and the levels of insulin in the collected sera were assessed essentially as described in Example 12. The results are presented in FIG. 28, in which the different test groups as presented in FIG. 28 are represented as described in Example 14 and “ns” indicates non-significant differences. The numbers of tested mice are as follows: vehicle (n=10), L-798106 (n=10), C17 (n=5), C20 (n=5).

[7] = system: MIN6 cells; experiment: rescue of MIN6 cells from palmitate-induced apoptosis (cleaved caspase 3 western blot; FACS SubG1); type: cell-based, murine; details: palmitic acid 0.3 mM, 48 hours; compared to L-798106
Description: as §1
Western blotting: Cells were lyzed in Laemmli protein sample buffer, separated on SDS-polyacrylamide gel, and transferred to […] nitrocellulose membranes (Schleicher and Schuell, Dassel, Germany). After blocking in 5% dried skimmed milk, the membranes were first incubated with the appropriate antibodies against: cleaved caspase-3 (Asp175) (Cell Signaling Technology Danvers, MA) and α-tubulin (Sigma-Aldrich.) and then with horseradish peroxidase conjugated anti-rabbit or anti-mouse IgG, followed by analysis with an enhanced chemiluminescence detection kit (Biological Industries, Israel).
The remaining compounds were screened for the ability to rescue β-cells from palmitate-induced apoptosis as compared to the commercial EP3 antagonist L-798106 by measuring the levels of the cleaved caspase 3 apoptotic marker, using Western Blot analysis (FIG. 1). […] Cell extracts were analyzed by western blotting for the presence of cleaved caspase 3 as compared to α-Tubulin.
The ability of the compounds to rescue β-cells from apoptosis was also evaluated using FACS analysis and measuring the SubG1 population (FIG. 2). […] Collected cells were analyzed by FACS and the SubG1 fractions (representing apoptotic cell products or components were compared. The average of 4-6 independent experiments is presented in FIG. 2.

## CCn1nc(C)c(S(=O)(=O)Nc2ccc(Cl)cc2C(=O)c2ccc[nH]2)c1C [Compound C10, N-(4-chloro-2-(1H-pyrrole-2-carbonyl)phenyl)-1-ethyl-3,5-dimethyl-1H-pyrazole-4-sulfonamide]
[1]
  inhibiting or reversing palmitate-induced apoptosis in pancreatic islets of both human donors: failed to inhibit

## C=C1C(=O)OC(CCCCCCCC)C1C(=O)O (stereo not drawn) [Compound C75]
[2]
  glucose-induced insulin secretion: markedly reduced
  β cell electrical activity: markedly reduced

## COc1cc(/C=C(\CCC(=O)O)c2nc3ccccc3s2)ccc1OCc1ccc(F)cc1 [Compound C20, (E)-4-(benzo[d]thiazol-2-yl)-5-(4-((4-fluorobenzyl)oxy)-3-methoxyphenyl)pent-4-enoic acid]
[1]
  rescuing human islet cells from apoptosis, compared with L-798106: to a greater extent than the EP3 antagonist L-798106
[3]
  glucose levels after insulin injection (insulin sensitivity), db/db mice: Improve Insulin Sensitivity
[4]
  average random blood glucose levels in db/db mice: effective in lowering average blood glucose levels
  random blood glucose levels at 8 weeks: the same blood glucose levels as the L-798106 treated mice
[5]
  hyperglycemia in IPGTT, db/db mice: significantly alleviated hyperglycaemia
[6]
  blood insulin levels (serum C-peptide) in diabetic mice: the differences did not reach statistical significance

## Cc1n[nH]c(C)c1S(=O)(=O)Nc1ccccc1C(=O)N[C@@H](C)c1ccccc1 [Compound C4, (S)-2-((3,5-dimethyl-1H-pyrazole)-4-sulfonamido)-N-(1-phenylethyl)benzamide]
[1]
  inhibition of palmitate-induced apoptosis in human islets, donor 1: moderate inhibitory activity comparable to that of L-798106

## COc1ccc([C@@H](CC(=O)O)NC(=O)c2cn(Cc3cccc(F)c3)nn2)cc1OC [Compound C12, (R)-3-(3,4-dimethoxyphenyl)-3-(1-(3-fluorobenzyl)-1H-1,2,3-triazole-4-carboxamido)propanoic acid]
[1]
  rescuing human islet cells from apoptosis, compared with L-798106: to a greater extent than the EP3 antagonist L-798106

## Cc1nn(C)c(C)c1C[C@@H](C)NC(=O)c1ccc(S(=O)(=O)Nc2ccccc2F)cc1 [Compound C9, (R)-4-(N-(2-fluorophenyl)sulfamoyl)-N-(1-(1,3,5-trimethyl-1H-pyrazol-4-yl)propan-2-yl)benzamide]
[1]
  inhibition of palmitate-induced apoptosis in human islets, donor 1: marked inhibitory activity

## COc1cc(/C=C(\CCC(=O)O)c2nc3ccccc3s2)ccc1OCc1ccccc1 [Compound C15, (E)-4-(benzo[d]thiazol-2-yl)-5-(4-(benzyloxy)-3-methoxyphenyl)pent-4-enoic acid]
[1]
  rescuing human islet cells from apoptosis, compared with L-798106: to a greater extent than the EP3 antagonist L-798106
[4]
  average random blood glucose levels in db/db mice: effective in lowering average blood glucose levels

## COc1cc(/C=C(/CC(=O)O)c2nc3ccccc3s2)ccc1OCc1cccc(C(F)(F)F)c1 [Compound C17, (Z)-3-(benzo[d]thiazol-2-yl)-4-(3-methoxy-4-((3-(trifluoromethyl)benzyl)oxy)phenyl)but-3-enoic acid]
[1]
  rescuing human islet cells from apoptosis, compared with L-798106: to a greater extent than the EP3 antagonist L-798106
[3]
  glucose levels after insulin injection (insulin sensitivity), db/db mice: Improve Insulin Sensitivity
[4]
  average random blood glucose levels in db/db mice: effective in lowering average blood glucose levels
  random blood glucose levels at 8 weeks: the same blood glucose levels as the L-798106 treated mice
[5]
  hyperglycemia in IPGTT, db/db mice: significantly alleviated hyperglycaemia
[7]
  rescue of β-cells from palmitate-induced apoptosis (cleaved caspase 3; SubG1 population): exceptionally high efficacy
[6]
  blood insulin levels (serum C-peptide) in diabetic mice: the differences did not reach statistical significance
